The values that follow come from patent publication US9427400B2, “Platinum-catalyzed intravaginal rings” (International Partnership for Microbicides, priority 2013, dated 2016).

Data set [1] is described as follows: Log P (n-octanol and buffer). It counts as physicochemical. The settings on record: at pH 9.0.
Data set [2] can be described thus: Solubility profile of dapivirine. It counts as physicochemical. The settings on record: for solubility: read-out: Solubility Profile (Low Solubility). The procedure: As used herein, the term “dapivirine” refers to (4-[[4-[(2,4,6-trimethylphenyl)amino]-2-pyrimidinyl]amino]benzonitrile), a non-nucleoside reverse transcriptase inhibitor. Dapivirine is useful in the prevention and/or treatment of retroviral infection, such as HIV-1 infection. It is a crystalline compound that is white to slightly beige in color, has a melting point of about 220° C. and is virtually insoluble in water. More specifically, the solubility of dapivirine is less than 0.001 mg/gm of water (i.e., less than 1 μg/ml of water). The intravaginal rings of the instant invention may use micronized dapivirine.

In data set [3] the test system is wild-type HIV-1 strains and HIV-1 strains harboring different resistance-inducing mutations. Conditions: wild-type and resistance-mutant strains; cited from earlier work.

Values after ≈ are worked out from the molar mass of the structure shown. Where two headings read alike, the source gives them in different places. Where only a bound is given, the exact number is not on record here.

For orientation: logP means a log measure of how a compound divides between an organic and an aqueous phase. A high value points to a more lipophilic compound. Broadly, the solubility is the dissolved amount per volume that the medium holds.

As for `Cc1cc(C)c(Nc2ccnc(Nc3ccc(C#N)cc3)n2)c(C)c1` [dapivirine, 4-[[4-[(2,4,6-trimethylphenyl)amino]-2-pyrimidinyl]amino]benzonitrile], the logP in data set [1] was 5.27. In addition, the solubility in data set [2] (0.1N HCl, simulated gastric fluid) is 280 µg/mL (≈ 850 µM); in data set [2] (water), greater than 1 µg/mL. In addition, the results for the “Solubility Profile (Low Solubility)” value in data set [2] (PEG 400) and in data set [2] (Propylene Glycol) were “PEG 400 = 47.4 mg/g” and “Propylene Glycol = 2.69 mg/g”, respectively. In addition, in data set [3], the “activity against HIV-1 strains” value is on record as “potent activity”.
